Data from US11793824B2, “Administration of nicotinamide mononucleotide in the treatment of disease” (Washington University, priority 2013, dated 2023).

Assays:
[1] = Age-associated increases in blood lipid levels; assay type: in vivo, mouse
Description: A 12 month-long NMN administration study using wild-type mice under a regular chow-fed condition was conducted. NMN was administered through drinking water, and two doses of NMN, 100 and 300 mg/kg body weight/day, were tested. […] To assess beneficial and possible adverse effects of NMN, a variety of physiological parameters were periodically monitored, including body weight, body temperature, food and water intake, fed and fasted blood glucose levels, fed and fasted plasma lipid panels, and glucose and insulin tolerance, in NMN-administered and control mice. Blood chemistry, blood cell counts, urine strip test, and other physiological tests including physical activity test were also checked.
Blood levels of cholesterol, triglycerides, and free fatty acids are shown over 12 months in the control and the 100 and 300 mg/kg NMN-administered cohorts in FIG. 7. The results were analyzed with two-way RANOVA and one-way RANOVA. All values are presented as mean±SEM (n=25 for each group).
Without being limited by theory, since NMN has an effect of suppressing age-associated body weight increase, it was hypothesized that NMN's effect on blood lipid levels could be due to the reduction in body weight. To address this possibility, lipid levels were compared among individual mice whose average body weights were matched through control and experimental cohorts. Body weight-matched blood levels of cholesterol, triglycerides, and free fatty acids are shown over 12 months in the control and the 100 and 300 mg/kg NMN-administered cohorts in FIG. 8. The results were analyzed with two-way RANOVA and one-way RANOVA. All values are presented as mean±SEM (n=10-15 for each group). […] All values are presented as mean±SEM (n=10-15 for each group). These findings indicate that NMN has the effect of suppressing the age-associated increase in blood FFA levels, independent of the reduction in body weight. Without being limited by theory, the effect of NMN on blood cholesterol levels may be secondary to the effect of suppressing age-associated body weight increase.

[2] = Contextual and cued fear conditioning tests in HFD-fed mice; assay type: in vivo, mouse
Description: Two groups of wild-type C57BL/6 mice at […] of age were fed a high fat diet (HFD) containing 42% of the total calories from fat (TD88137; Harlan Taklad). NMN at a dose of 300 mg/kg/day began to be administered through drinking water to one of the HFD-fed groups after 4 months of HFD feeding. The control group was fed a regular chow. After 8 months of HFD feeding with or without 4 months of NMN treatment, the contextual fear conditioning test, a sensitive test to examine the memory function that involves the hippocampus, was conducted for mice in these three groups.
FIG. 10 illustrates freezing responses of regular chow-fed control, HFD-fed, and HFD-fed, NMN-treated mice in contextual and cued fear conditioning tests on Day 1, Day 2 and Day3. NMN was administered at the dose of 300 mg/kg/day for 4 months. On Day 1 of the study, mice were given an auditory cue and then a mild electric foot shock, and a time of freezing was analyzed individually. On Day 2, the trained mice were placed into a training chamber with no tone cues, and their freezing responses were evaluated. […] The results were analyzed by one-way ANOVA with unweighted quadratic term. All values are presented as mean±SEM (n=17, 15, and 12 for regular chow-fed control, HFD-fed, and HFD-fed, NMN-treated mice, respectively). **P<0.01; *P<0.05.

[3] = 100 and 300 mg/kg groups vs control

NC(=O)c1ccc[n+]([C@@H]2O[C@H](COP(=O)([O-])O)[C@@H](O)[C@H]2O)c1 [NMN, nicotinamide mononucleotide]
increase of FFAs over time after body weight match ([1]; 100 mg/kg group): showed significant increases over time | increase of blood FFAs over time ([1]; 100 mg/kg group, first 6 months): statistically significant increases | increase of FFAs over time after body weight match ([1]; 300 mg/kg group): did not show any statistically significant increases over time | increase of blood FFAs over time ([1]; 300 mg/kg group): did not show any statistically significant increase over time | age-associated increases in blood levels of FFAs ([1]; 300 mg/kg, particularly at the 6-month time point): suppressed age-associated increases in blood levels of FFAs | FFA levels after matching body weight [1, 3]: still lower | blood cholesterol levels after matching body weight [1, 3]: very similar through control and experimental groups | age-associated increases in blood cholesterol and free fatty acids ([1]; 100 and 300 mg/kg groups, 12 months): tended to be suppressed | freezing responses, conditioning session and cued fear conditioning ([2]; Day 1 and Day 3, NMN 300 mg/kg/day for 4 months): did not differ from those of control mice | freezing responses, contextual fear conditioning test ([2]; Day 2, NMN 300 mg/kg/day for 4 months): indistinguishable from those of regular chow-fed control mice
